The term IC50 denotes the concentration needed to halve the response being measured.

One assay relates to TDP-43 aggregation. Briefly: TDP-43 aggregation assay in SY5Y TDP-43WT cells (high content imaging). The format is cell-based. The note with it: Homo sapiens, tetracycline induction 24 hrs, 1 hour compound pre-treatment, sodium arsenite 23 hrs, 8-point dose curve, percentage of cells with TDP-43 aggregates, read-out: IC50, Inhibition of TDP-43 Aggregation. The gist of the method:
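Tetracycline-inducible eGFP-tagged wild-type human TDP-43 in SH-SY5Y cells, induced 24 h ([…]), compound pre-treated 1 h, then sodium arsenite […] for 23 h. Fixed cells imaged; percentage of DAPI-counted cells with aggregates gives IC50 from 8-point curves.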

Another assay relates to tau stress granules. Briefly: SY5Y-tT1 tau arsenite assay (tau stress granules per cell). In kind it is cell-based. The note with it: SY5Y-tT1 cells, 2 hours compound, 90 minutes arsenite, 50% reduction of granules per cell, read-out: IC50, Inhibitor Activity of Tau Stress Granules. The protocol: Example 91: In Vitro Efficacy Assay of Exemplary Compounds—SY5Y-tT1 Tau Arsenite/Thapsigargin Assay
• Before harvesting cells—checked to see if cells are ~80% confluency in their flask • 1. Aspirated growth media from flask. • 2. Added 4 mL of (0.25%) trypsin-EDTA (REF: 25200-056) • 3. Placed in 37° C. incubator for 5 minutes. • 4. Removed from incubator and added 11 mL growth media, washing any remaining cells adhered to the bottom of the flask. • 5. Transferred cell containing media to a 50 mL conical tube and spun for 5 minutes at 800 rpm. • 6. Aspirated supernatant and added 5 mL of growth media to cell pellet, triturating to make a homogenous cell solution. • 7. After counting cells, followed one of these plating paradigms: • (A) If treating with arsenite, plated cells at […] with tetracycline solution (5 mg/mL) added to cell solution at 1:5000 • (B) If treating with thapsigargin, plated cells at 4,000 cells/well with tetracycline solution (5 mg/mL) added to cell solution at 1:5000 • 8. Incubated at 37° C. for 48 hours.
• Solubilized all compounds to 10 mM prior to making dilution plates • 1. To a 96-well U-bottom plate (Falcon Non-Tissue Culture Treated Plates REF: 351177) added 120 μL growth media to all 96 wells, with an additional 58.2 μL to row A. • 2. Added 1.8 μL of 10 mM compound stock to wells A1-11, adding 1.8 μL of 10 mM PERKi stock (Selleck Chemistry GSK2606414 Cat No. S7307) as the control. • 3. Serially diluted 60 μL from row A down through each row, finishing with 180 μL total volume in row H. • 4. Transferred 12.5 μL of each dilution plate well to the correlating wells in cell plate, being careful not to touch cells adhered to bottom of the plate. • 5. Incubated for 2 hours.
• 1. Added 720 μL of 0.05 M sodium arsenite solution (CAS #: 7784-46-5) to 10 mL of growth media for a final concentration of […] arsenite solution, mix well. • 2. Added 12.5 μL of arsenite solution to all wells of compounds treated plate intended for arsenite treatment. • 3. Incubated at 37° C. for 90 minutes.
• Before beginning this part of the protocol: • Made 1×PBS by diluting 10× stock (10×, Phosphate buffered saline, Fisher #BP399— • 4) in sterile deionized water. • Diluted paraformaldehyde (16% Paraformaldehyde solution, Electron Microscopy Sciences #15710-S) to 4% in 1×PBS. • Diluted Hoechst stain (Life Technologies #H3570) 1:10,000 in 1×PBS (1 μL Hoechst per 10 mL 1×PBS). • Both solutions were protected from light. • 1) After compound treatment, aspirated media from cell plates and gently added in 50 μL of 4% paraformaldehyde for 10 min protected from light at room temperature. • 2) Aspirated paraformaldehyde solution and gently added 50 μL of 1:10,000 Hoechst solution to each well and incubated for 10 min protected from light at room temperature. • 3) Aspirated Hoechst solution and gently added 100 μL 1×PBS. Cover the plate with aluminum film (VWR #60941-126). • 4) Stored at 4° C. or used immediately for imaging on ThermoFisher CX7 imager.
Exemplary compounds of the disclosed herein were evaluated for efficacy for inhibitor activity of tau stress granules in the arsenite assay and quantified as drug concentration providing a 50% reduction (IC50) of granules per cell is shown in Table 4.
In Table 4 below, A indicates an IC50 (μM)<0.5 μM, B indicates an IC50 (μM) 0.5 μM to <1 μM, C indicates an IC50 (μM) 1 μM to <2 μM, and D indicates an IC50 (μM) 2 μM to <6 μM.

For `Cc1cc(-c2ccc(C3CCN(C4CCCC4)CC3)cc2)sc1C(=O)N1CC[C@H](N)C1` [Compound 180, (S)-(3-aminopyrrolidin-1-yl)(5-(4-(1-cyclopentylpiperidin-4-yl)phenyl)-3-methylthiophen-2-yl)methanone], the IC50 in the assay on TDP-43 aggregation and in the assay on tau stress granules was less than 500 nM in each case. As for `CCN1CCC(c2ccc(-c3cc(C)c(C(=O)N4CC[C@H](N)C4)s3)cc2)CC1` [Compound 176, (S)-(3-aminopyrrolidin-1-yl)(5-(4-(1-ethylpiperidin-4-yl)phenyl)-3-methylthiophen-2-yl)methanone], the IC50 in the assay with TDP-43 aggregation is less than 500 nM; in the assay on tau stress granules, 500 to 1000 nM. On to `COCCN1CCC(c2ccc(-c3cc(C)c(C(=O)N4CC[C@H](N)C4)s3)cc2)CC1` [Compound 142, (S)-(3-aminopyrrolidin-1-yl)(5-(4-(1-(2-methoxyethyl)piperidin-4-yl)phenyl)-3-methylthiophen-2-yl)methanone], for which the IC50 in the assay on TDP-43 aggregation was less than 500 nM; in the assay on tau stress granules, 500 to 1000 nM. In the same order, the values of `Cc1cc(-c2ccc(C3CCN(C4CCOCC4)CC3)cc2)sc1C(=O)N1CC[C@H](N)C1` [Compound 178, (S)-(3-aminopyrrolidin-1-yl)(3-methyl-5-(4-(1-(tetrahydro-2H-pyran-4-yl)piperidin-4-yl)phenyl)thiophen-2-yl)methanone] are less than 500 nM and less than 500 nM.

Turning to `Cc1cc(-c2ccc(N3CCN(C4CCCC4)CC3)cc2)sc1C(=O)N1CC[C@H](N)C1` [Compound 153, (S)-(3-aminopyrrolidin-1-yl)(5-(4-(4-cyclopentylpiperazin-1-yl)phenyl)-3-methylthiophen-2-yl)methanone], in the assay with tau stress granules, the IC50 lay in the range of 1000 to 2000 nM. `Cc1cc(-c2ccc(N3CCN(C4CCOC4)CC3)cc2)sc1C(=O)N1CC[C@H](N)C1` (stereo partly drawn) [Compound 152, ((S)-3-aminopyrrolidin-1-yl)(3-methyl-5-(4-(4-(tetrahydrofuran-3-yl)piperazin-1-yl)phenyl)thiophen-2-yl)methanone]: the half-maximal inhibitory concentration (IC50) with tau stress granules lay within 1000 to 2000 nM. Take `Cc1cc(-c2ccc(C3CCN(C)CC3)c(Cl)c2)sc1C(=O)N1CC[C@H](N)C1` [Compound 135, (S)-(3-aminopyrrolidin-1-yl)(5-(3-chloro-4-(1-methylpiperidin-4-yl)phenyl)-3-methylthiophen-2-yl)methanone]: in the assay on tau stress granules, the IC50 was in the range of 2000 to 6000 nM. For `Cc1cc(-c2ccc(CN(C)C)cc2)sc1C(=O)N1CC[C@H](N)C1` [Compound 217, (S)-(3-aminopyrrolidin-1-yl)(5-(4-((dimethylamino)methyl)phenyl)-3-methylthiophen-2-yl)methanone], the IC50 with tau stress granules fell in the range of 1000 to 2000 nM. Regarding `Cc1cc(-c2cnc(C3CCN(C)CC3)nc2)sc1C(=O)N1CC[C@H](N)C1` [Compound 124, (S)-(3-aminopyrrolidin-1-yl)(3-methyl-5-(2-(1-methylpiperidin-4-yl)pyrimidin-5-yl)thiophen-2-yl)methanone], the IC50 in the assay with tau stress granules is less than 500 nM. Still for that read-out and setting: the same measure for `Cc1cc(-c2ccc(C3CCN(C)CC3)nc2)sc1C(=O)N1CC[C@H](N)C1` [Compound 108, (S)-(3-aminopyrrolidin-1-yl)(3-methyl-5-(6-(1-methylpiperidin-4-yl)pyridin-3-yl)thiophen-2-yl)methanone]: 500 to 1000 nM. Turning to `Cc1cc(-c2ccc(C3CCN(C4CCSCC4)CC3)cc2)sc1C(=O)N1CC[C@H](N)C1` [Compound 167, (S)-(3-aminopyrrolidin-1-yl)(3-methyl-5-(4-(1-(tetrahydro-2H-thiopyran-4-yl)piperidin-4-yl)phenyl)thiophen-2-yl)methanone], the IC50 with tau stress granules was 1000 to 2000 nM. In the case of `Cc1cc(-c2ccc(N3CCN(C4CCOCC4)CC3)cc2)sc1C(=O)N1CC[C@H](N)C1` [Compound 151, (S)-(3-aminopyrrolidin-1-yl)(3-methyl-5-(4-(4-(tetrahydro-2H-pyran-4-yl)piperazin-1-yl)phenyl)thiophen-2-yl)methanone], the IC50 in the assay with tau stress granules lay in the range of 2000 to 6000 nM.

The values above are taken from patent US20260258025A1, “INHIBITORS OF TDP-43 AND TAU AGGREGATION” (Aquinnah Pharmaceuticals, inc., priority 2023, published 2026).
